For one series, the system named is MV4-11. The series is described as follows: Antiproliferative activity against human MV4-11 cells measured after 3 days by celltiter-glo luminescence assay. The conditions noted are these: MV4-11, 72 h. In kind it is functional, cell-based. (Cellular ATP, detected with luciferase, serves as a proxy for viable cell number.)
The target of series [1] is Histone acetyltransferase p300 (Homo sapiens, UniProt Q09472). Nature of the series: Inhibition of p300 (unknown origin) using histone H3 (1 to 21 residues) as substrate preincubated for 15 mins followed by substrate and [3H]acetyl-CoA addition and measured after 60 mins by scintillation counting analysis.
A short description of series [2]: Intrinsic clearance in human liver microsomes assessed per mg protein at 0.1 uM preincubated for 10 mins followed by NADPH addition and measured up to 60 mins by UPLC-MS/MS analysis. In kind it is ADME, Microsome. The settings on record: read-out: CLH.
Series [3] in a line: Intrinsic clearance in mouse liver microsomes assessed per mg protein at 0.1 uM preincubated for 10 mins followed by NADPH addition and measured up to 60 mins by UPLC-MS/MS analysis. In kind it is ADME, Microsome. The settings on record: read-out: CLH. For orientation: Liver microsomes are a subcellular fraction often used to study metabolism.
Series [4] can be described thus: Intrinsic clearance in rat liver microsomes assessed per mg protein at 0.1 uM preincubated for 10 mins followed by NADPH addition and measured up to 60 mins by UPLC-MS/MS analysis. In kind it is ADME, Microsome. The conditions noted are these: read-out: CLH.
Series [5] can be described thus: Half life in Sprague-Dawley rat at 3 mg/kg, po by LC-MS/MS analysis. In kind it is ADME, organism-based. The settings on record: in vivo.
Series [6] can be described thus: Cmax in Sprague-Dawley rat at 3 mg/kg, po by LC-MS/MS analysis. In kind it is ADME, organism-based. Further details: dose 3 mg/kg, route oral. The conditions noted are these: in vivo.
A short description of series [7]: AUClast in Sprague-Dawley rat at 3 mg/kg, po by LC-MS/MS analysis. Format: ADME, organism-based. On the set-up: dose 3 mg/kg, time 0 - last, route oral. The conditions noted are these: in vivo.
Series [8] in a line: Tmax in Sprague-Dawley rat at 3 mg/kg, po by LC-MS/MS analysis. In kind it is ADME, organism-based. The settings on record: in vivo.
Series [9] is described as follows: Clearance in Sprague-Dawley rat at 1 mg/kg, iv by LC-MS/MS analysis. In kind it is ADME, organism-based. The conditions noted are these: in vivo.
A short description of series [10]: Half life in Sprague-Dawley rat at 1 mg/kg, iv by LC-MS/MS analysis. The conditions noted are these: in vivo. In kind it is ADME, organism-based.
A short description of series [11]: AUClast in Sprague-Dawley rat at 1 mg/kg, iv by LC-MS/MS analysis. In kind it is ADME, organism-based. On the set-up: dose 1 mg/kg, route intravenous, time 0 - last. The conditions noted are these: in vivo.
The nature of series [12]: Oral bioavailability in Sprague-Dawley rat at 3 mg/kg by LC-MS/MS analysis. In kind it is ADME, organism-based. The settings on record: in vivo.
The nature of series [13]: Volume of distribution at steady state in Sprague-Dawley rat at 1 mg/kg, iv by LC-MS/MS analysis. Format: ADME, organism-based. The settings on record: in vivo, read-out: Vdss.
Series [14] can be described thus: Protein binding in rat plasma. In kind it is ADME, cell-free. The settings on record: read-out: PPB (converted).

Bounds are passed on as bounds.

Chain of Histone acetyltransferase p300 (Q09472 whole entry, the tested form may be a part): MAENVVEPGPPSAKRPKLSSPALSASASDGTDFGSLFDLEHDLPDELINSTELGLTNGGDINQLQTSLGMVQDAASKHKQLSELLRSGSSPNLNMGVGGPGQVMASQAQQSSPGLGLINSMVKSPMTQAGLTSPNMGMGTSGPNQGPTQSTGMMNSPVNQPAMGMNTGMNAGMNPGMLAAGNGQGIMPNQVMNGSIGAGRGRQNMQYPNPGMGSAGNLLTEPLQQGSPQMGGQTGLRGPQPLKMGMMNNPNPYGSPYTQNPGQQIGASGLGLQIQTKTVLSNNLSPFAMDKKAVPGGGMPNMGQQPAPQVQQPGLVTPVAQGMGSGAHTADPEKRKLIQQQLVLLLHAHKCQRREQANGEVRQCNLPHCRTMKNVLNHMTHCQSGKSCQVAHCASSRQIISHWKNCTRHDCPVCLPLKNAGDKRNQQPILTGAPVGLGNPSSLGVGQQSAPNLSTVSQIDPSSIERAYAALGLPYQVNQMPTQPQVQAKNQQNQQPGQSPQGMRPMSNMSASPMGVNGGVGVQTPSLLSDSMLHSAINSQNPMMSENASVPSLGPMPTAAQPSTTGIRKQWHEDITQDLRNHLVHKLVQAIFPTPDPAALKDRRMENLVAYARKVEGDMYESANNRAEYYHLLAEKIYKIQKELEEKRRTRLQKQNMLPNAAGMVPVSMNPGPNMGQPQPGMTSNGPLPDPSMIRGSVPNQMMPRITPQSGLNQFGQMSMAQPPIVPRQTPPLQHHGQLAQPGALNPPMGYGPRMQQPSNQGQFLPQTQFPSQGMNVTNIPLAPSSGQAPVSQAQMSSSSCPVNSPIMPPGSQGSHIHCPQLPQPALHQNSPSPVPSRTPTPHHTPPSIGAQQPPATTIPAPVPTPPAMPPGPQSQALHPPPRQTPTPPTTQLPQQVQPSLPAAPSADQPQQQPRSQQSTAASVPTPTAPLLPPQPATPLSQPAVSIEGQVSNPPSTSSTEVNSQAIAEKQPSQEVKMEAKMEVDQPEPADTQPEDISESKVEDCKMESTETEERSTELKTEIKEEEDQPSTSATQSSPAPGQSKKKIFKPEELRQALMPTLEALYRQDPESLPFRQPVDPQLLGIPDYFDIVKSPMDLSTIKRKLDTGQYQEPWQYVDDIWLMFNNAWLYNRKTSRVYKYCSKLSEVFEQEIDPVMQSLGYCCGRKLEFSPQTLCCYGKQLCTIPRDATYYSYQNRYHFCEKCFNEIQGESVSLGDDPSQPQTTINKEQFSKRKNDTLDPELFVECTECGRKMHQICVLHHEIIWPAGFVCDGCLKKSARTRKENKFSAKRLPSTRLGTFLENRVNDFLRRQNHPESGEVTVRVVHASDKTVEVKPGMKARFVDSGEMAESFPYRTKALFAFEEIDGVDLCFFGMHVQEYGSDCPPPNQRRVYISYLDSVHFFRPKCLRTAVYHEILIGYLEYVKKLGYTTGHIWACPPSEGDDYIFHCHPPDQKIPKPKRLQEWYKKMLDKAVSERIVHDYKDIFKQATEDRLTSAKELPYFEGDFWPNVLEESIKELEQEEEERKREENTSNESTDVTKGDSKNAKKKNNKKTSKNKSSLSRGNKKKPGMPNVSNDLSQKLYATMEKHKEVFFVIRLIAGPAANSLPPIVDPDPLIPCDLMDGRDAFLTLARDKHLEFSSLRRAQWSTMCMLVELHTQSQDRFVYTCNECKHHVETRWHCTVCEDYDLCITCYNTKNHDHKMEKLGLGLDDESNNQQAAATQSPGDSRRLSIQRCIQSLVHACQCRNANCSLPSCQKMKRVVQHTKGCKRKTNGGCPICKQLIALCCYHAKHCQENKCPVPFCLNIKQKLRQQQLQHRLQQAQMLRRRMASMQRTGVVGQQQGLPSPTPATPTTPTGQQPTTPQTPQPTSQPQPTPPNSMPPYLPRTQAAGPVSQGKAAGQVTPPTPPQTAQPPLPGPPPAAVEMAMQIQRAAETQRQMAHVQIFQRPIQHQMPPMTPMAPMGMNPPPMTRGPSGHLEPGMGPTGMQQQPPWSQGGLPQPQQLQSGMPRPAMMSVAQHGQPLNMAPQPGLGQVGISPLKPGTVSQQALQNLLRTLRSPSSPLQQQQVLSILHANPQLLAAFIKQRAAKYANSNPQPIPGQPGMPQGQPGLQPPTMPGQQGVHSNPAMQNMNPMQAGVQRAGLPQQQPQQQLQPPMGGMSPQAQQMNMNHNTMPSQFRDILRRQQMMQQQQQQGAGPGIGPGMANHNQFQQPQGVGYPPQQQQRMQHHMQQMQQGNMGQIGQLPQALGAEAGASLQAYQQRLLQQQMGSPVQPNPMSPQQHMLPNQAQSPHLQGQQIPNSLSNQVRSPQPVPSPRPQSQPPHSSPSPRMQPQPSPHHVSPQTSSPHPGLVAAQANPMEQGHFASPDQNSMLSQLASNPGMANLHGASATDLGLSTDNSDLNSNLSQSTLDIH

As to `CNC(=O)Nc1ccc2c(c1)CC[C@]21OC(=O)N(CC(=O)N2Cc3ccccc3CC[C@H]2C(F)(F)F)C1=O`, the figures for the half-maximal inhibitory concentration (IC50) (in the series with MV4-11; in series [1]) were 77 nM and 10 nM, respectively.
In the same order, the values of `Cn1cc(-c2cc3c(cn2)[C@]2(CC3)NC(=O)N(CC(=O)N3Cc4cc(F)ccc4OC[C@H]3C(F)(F)F)C2=O)cn1` are 825 nM and 30 nM.
Regarding `Cn1cc(-c2ccc3c(n2)CC[C@]32NC(=O)N(CC(=O)N3Cc4cc(F)ccc4OC[C@H]3C(F)(F)F)C2=O)cn1`, the concentration for half-maximal inhibition (IC50) (in general, the concentration needed to halve the response being measured) with MV4-11 worked out at 206 nM; in series [1] it was 14 nM.
In the same order, the values of `CNC(=O)Nc1ccc2c(c1)CC[C@@]21OC(=O)N(CC(=O)N2Cc3ccccc3CC[C@@H]2C(F)(F)F)C1=O` are > 5000 nM and > 1000 nM.
`CNC(=O)Nc1ccc2c(c1)CC[C@@]21OC(=O)N(CC(=O)N2Cc3ccc(F)cc3CC[C@H]2C(F)(F)F)C1=O`: the microsomal CLint at 0.1 µM was determined as 161 µL/min/mg in [2], 106 µL/min/mg in series [3] and 94.4 µL/min/mg in [4]. In the series with MV4-11, this compound registered an IC50 of 2.9 nM.
As for `CNC(=O)Nc1ccc2c(c1)CC[C@]21NC(=O)N(CC(=O)N2Cc3cc(F)ccc3OC[C@H]2C2CC2)C1=O`, the half-life – broadly, the time in which the quantity being followed falls by half – in [5] is 59.4 min. The microsomal CLint at 0.1 µM in series [2] came out at 9.4 µL/min/mg; in series [3] it was 9.6 µL/min/mg; in series [4] it was 9.2 µL/min/mg. The results for the IC50 (in the series with MV4-11; in series [1]) were 4.8 nM and 4.2 nM, respectively. For the same compound, the Cmax (as a rule, the maximum level reached in the sampled fluid or tissue) in series [6] is 7 nM. Besides, the AUC(0-t) (as a rule, exposure summed from dosing to a finite time, without extrapolation to infinity) in series [7] was 0.008 µM·h. In addition, the time to peak (Tmax) (as a rule, the time from dosing to the highest level) in [8] is 24.6 min.
As for `CNC(=O)Nc1ccc2c(c1)CC[C@@]21NC(=O)N(CC(=O)N2Cc3cc(F)ccc3OC[C@H]2C2CC2)C1=O`, the IC50 in the series on MV4-11 was > 500 nM; in series [1] it was 73 nM.
Turning to `CNC(=O)Nc1ccc2c(c1)CC[C@@]21OC(=O)N(CC(=O)N2Cc3ccccc3CC[C@H]2C(F)(F)F)C1=O`, the half-life in series [5] was 109 min; in series [10], 40.2 min. Besides, the values for the microsomal CLint at 0.1 µM in series [2], in series [3] and in series [4] were 147 µL/min/mg, 166 µL/min/mg and 134 µL/min/mg, respectively. In addition, the results for the IC50 (in the series on MV4-11; in [1]) were 8.2 nM and 2.6 nM, respectively. Besides, the clearance (as a rule, the rate of elimination divided by the concentration) in [9] worked out at 35.1 mL/min/kg. The same compound had a Cmax in series [6] of 160 nM. Besides, the exposure AUC(0-t) was determined as 0.36 µM·h in [7] and 0.89 µM·h in series [11]. For the same compound, the Tmax in series [8] was determined as 30 min. In addition, in series [12], the bioavailability (as a rule, the share of a dose that reaches the circulation, judged against a reference dose that is usually intravenous) worked out at 13.5%. In addition, the Vd in [13] amounted to 1.34 L/kg.
In the case of `CNC(=O)Nc1ccc2c(c1)CC[C@@]21OC(=O)N(CC(=O)N2Cc3ccccc3C[C@H]2C)C1=O`, the IC50 in [1] is > 1000 nM.
Regarding `Cn1cc(-c2ccc3c(c2)CC[C@@]32OC(=O)N(CC(=O)N3Cc4cc(F)ccc4OC[C@H]3C3CC3)C2=O)cn1`, the fraction unbound in [14] was 0.007. Besides, in series [5], the half-life was 72.6 min. In addition, the microsomal CLint at 0.1 µM is 81.5 µL/min/mg in series [2], 113 µL/min/mg in series [3] and 121 µL/min/mg in series [4]. In addition, the concentration for half-maximal inhibition (IC50) was 3.7 nM in the series on MV4-11 and 4 nM in series [1]. In series [6], this compound yielded a Cmax of 57 nM. The compound also returned an AUC(0-t) in series [7] of 0.09 µM·h. The time of peak concentration (Tmax) in [8] is 30 min.
Consider `CNC(=O)Nc1ccc2c(c1)CC[C@]21NC(=O)N(CC(=O)N2Cc3cc(F)ccc3OC[C@H]2C(F)(F)F)C1=O`, for which, in series [5], the half-life was 267 min. In addition, the results for the microsomal CLint at 0.1 µM in [2], in series [3] and in series [4] were 10.2 µL/min/mg, 16.4 µL/min/mg and 3.1 µL/min/mg, respectively. In addition, the results for the 50% inhibitory concentration (IC50) (with MV4-11; in series [1]) were 15.8 nM and 7.5 nM, respectively. In addition, the highest level in [6] (Cmax) was 20 nM. Besides, the AUC(0-t) in series [7] worked out at 0.054 µM·h. Further, in series [8], the time of peak concentration (Tmax) is 15 min.
For the compound `CCC[C@@H]1CCc2ccccc2CN1C(=O)CN1C(=O)O[C@@]2(CCc3cc(NC(=O)NC)ccc32)C1=O`, the IC50 with MV4-11 was 12 nM; in [1], 4 nM.
The corresponding values for `Cn1cc(-c2cnc3c(c2)CC[C@]32NC(=O)N(CC(=O)N3Cc4cc(F)ccc4OC[C@H]3C(F)(F)F)C2=O)cn1` are 118 nM and 10 nM.
As for `CNC(=O)Nc1ccc2c(c1)CC[C@@]21OC(=O)N(CC(=O)N2Cc3ccccc3CC[C@H]2C(C)C)C1=O`, the microsomal CLint at 0.1 µM in [2] was 209 µL/min/mg; in series [3], 360 µL/min/mg; in series [4] it was 411 µL/min/mg. In addition, the half-maximal inhibitory concentration (IC50) stood at 10.7 nM in the series with MV4-11 and 4.3 nM in series [1].
For `CNC(=O)Nc1ccc2c(c1)CC[C@@]21OC(=O)N(CC(=O)N2Cc3ccccc3OC[C@H]2C)C1=O`, the microsomal CLint at 0.1 µM in series [2] came to 20.5 µL/min/mg; in [3], 37.3 µL/min/mg; in series [4] it was 82.5 µL/min/mg. Besides, the IC50 with MV4-11 worked out at 72.8 nM.
For `CNC(=O)Nc1ccc2c(c1)CC[C@@]21OC(=O)N(CC(=O)N2Cc3ccccc3CC[C@@H]2C)C1=O`, the 50% inhibitory concentration (IC50) in the series with MV4-11 is > 5000 nM; in [1] it was > 1000 nM.
With `CNC(=O)Nc1ccc2c(c1)CC[C@@]21OC(=O)N(CC(=O)N2Cc3ccc(F)cc3CC[C@H]2C2CC2)C1=O`, the figures for the microsomal CLint at 0.1 µM in series [2], in series [3] and in series [4] were 112 µL/min/mg, 150 µL/min/mg and 258 µL/min/mg, respectively. This compound gave a half-maximal inhibitory concentration (IC50) in the series on MV4-11 of 4 nM.
Regarding `CNC(=O)Nc1ccc2c(c1)CC[C@]21OC(=O)N(CC(=O)N2Cc3ccccc3CC[C@H]2C)C1=O`, the IC50 in the series with MV4-11 came to 156 nM; in [1], 46 nM.
As for `CNC(=O)Nc1ccc2c(c1)CC[C@@]21OC(=O)N(CC(=O)N2CCCc3ccccc3C2)C1=O`, the values for the half-inhibitory concentration (IC50) (in the series with MV4-11; in series [1]) were > 1000 nM and > 500 nM, respectively.
In the case of `CNC(=O)Nc1ccc2c(c1)CC[C@@]21OC(=O)N(CC(=O)N2Cc3ccc(F)cc3CC[C@H]2C)C1=O`, the microsomal CLint at 0.1 µM came to 255 µL/min/mg in [2], 219 µL/min/mg in series [3] and 265 µL/min/mg in series [4]. Inhibition in the series on MV4-11 was half-maximal at 20.4 nM (IC50).
On to `CNC(=O)Nc1ccc2c(c1)CC[C@@]21OC(=O)N(CC(=O)N2Cc3ccccc3CC[C@H]2C)C1=O`, for which the half-inhibitory concentration (IC50) in the series on MV4-11 is 64.3 nM; in series [1], 10 nM.
In the same order, the values of `CNC(=O)Nc1ccc2c(c1)CC[C@@]21NC(=O)N(CC(=O)N2Cc3cc(F)ccc3OC[C@H]2C(F)(F)F)C1=O` are > 1000 nM and > 100 nM.
`CNC(=O)Nc1ccc2c(c1)CC[C@@]21OC(=O)N(CC(=O)N2Cc3cc(F)ccc3OC[C@H]2C(F)(F)F)C1=O` had a half-life in series [5] of 85.8 min. Moreover, the results for the microsomal CLint at 0.1 µM in series [2], in [3] and in series [4] were 31.1 µL/min/mg, 52.3 µL/min/mg and 47.8 µL/min/mg, respectively. Moreover, the IC50 with MV4-11 is 24.9 nM. Moreover, the Cmax in [6] worked out at 80 nM. The AUC(0-t) in series [7] is 0.27 µM·h. In series [8], the Tmax is 60 min.
With `CNC(=O)Nc1ccc2c(c1)CC[C@@]21OC(=O)N(CC(=O)N2Cc3ccccc3CC[C@H]2C2CC2)C1=O`, the values for the half-life in [5] and in series [10] were 100 min and 37.2 min, respectively. Besides, the results for the microsomal CLint at 0.1 µM in [2], in [3] and in series [4] were 179 µL/min/mg, 197 µL/min/mg and 480 µL/min/mg, respectively. For the same compound, the IC50 with MV4-11 was 8.8 nM; in series [1], 3.7 nM. The clearance in series [9] was found to be 27.9 mL/min/kg. For the same compound, the concentration in series [6] peaked (Cmax) at 140 nM. The AUC(0-t) in series [7] worked out at 0.21 µM·h; in [11], 1.18 µM·h. The Tmax in series [8] was 15 min. The compound also gave a bioavailability in series [12] of 6%. Moreover, the Vd in series [13] was found to be 0.88 L/kg.

The values above are taken from ChEMBL document CHEMBL4321876 (J Med Chem, 2020).
